Assays:
mock-infected cells = experiment: Assessment of cytotoxicity (cell viability in parallel); type: cell-based
Method: (§1) Virology studies are preformed to assess the antiviral potency substituted heterobetulinic acids. The antiviral effect of these compounds is evaluated by parallel studies of inhibition of viral replication and cell viability. Viruses and cells for use in these assays may be obtained from the NIH AIDS Reagent Program.
Plates are incubated at 37° C. in a humidified CO2 incubator for six days. Following incubation of the HIV-1 infected cells with the compound cell viability is assessed using a calorimetric assay of metabolic activity, such as an XTT, MTT or WST-1 assay, or a BrdU incorporation assay. Cytotoxicity of the compound is determined in parallel by measurement of the viability of mock-infected cells treated with the compound. Uninfected cells without compounds are used for a 100% viability control. Infected cells to which no compound is added provide a value for 100% of cell death due to viral infection. The number of surviving or viable cells is quantified by a tetrazolium-based colorimetric method using the CellTiter96 reagent (Promega, Madison, Wis.).

HIV-1 = experiment: Inhibition of early phase virus replication (MAGI cell β-gal indicator assay); type: cell-based; conditions: Human immunodeficiency virus 1; MAGI cells, MOI of 0.00125
Method: as §1
The effect of compounds on the early phase virus replication, from virus particle attachment through early gene, Tat expression, are evaluated using a CD4-positive LTR-β-galatosidase-expressing HeLa (MAGI) cell indicator line. This assay, described previously to assess the level of β-gal expression, has been modified and adopted in our laboratory. β-gal levels are quantified by photon detection assay, with virus infected cells that are not treated with a capsid formation inhibitor giving the highest level of expression. […]
MAGI Cells are trypsinization and counted using the trepan blue exclusion method, and resuspended at a pre-determined concentration (usually 2×10^4 cells/well) in 10% FBS complete RPMI 1640. […]
The viruses are diluted to a pre-determined MOI/well, typically 0.01 to 1, in Pre-MAGI media plus 20 μg/well DEAE-dextran. […]
Plates are incubated at room temperature (25° C.) for 60-90 minutes or until constant light emission is reached. Plate(s) are read in a luminometer and measured for 0.1-1.0 sec/well.

Structure (SMILES) | cytotoxicity (mock-infected cells) | EC50 (HIV-1)
CC1=CC[C@]2(C(=O)O)CC[C@]3(C)[C@H](CC[C@@H]4[C@@]5(C)CCC(OC(=O)CC(C)(C)C(=O)O)C(C)(C)[C@@H]5CC[C@]43C)[C@H]2[C@@H]1C (stereo partly shown) [Compound 11] | Neither compound was cytotoxic | < 2000 nM
CC1=CC[C@]2(CO)CC[C@]3(C)[C@H](CC[C@@H]4[C@@]5(C)CC[C@H](OC(=O)CC(C)(C)C(=O)O)C(C)(C)[C@@H]5CC[C@]43C)[C@H]2[C@@H]1C [Compound 12] | Neither compound was cytotoxic | < 100 nM

Reference: patent publication US20070197646A1, “SUBSTITUTED TARAXASTANES USEFUL FOR TREATING VIRAL INFECTIONS” (ACHILLION PHARMACEUTICALS, INC., priority 2006, published 2007)
